Among the data in US11912699B2, “Tau-protein targeting compounds and associated” (Arvinas Operations, Inc., priority 2019, dated 2024) are remaining activity values, retold here.

Read-outs that look alike come from different tables or passages of the source. Bounds are passed on as bounds.

This test has as its target T1, Tau P301L (Homo sapiens, UniProt P10636, P618L).
T1 construct: expressed in transfected cells
Briefly: In vitro tau degradation assay in CHOK1 Tau P301L cells (sarkosyl insoluble tau, WES). The test is classed as cell-based. Particulars: CHO-K1, relative to DMSO doxycycline control, read-out: Tau Protein Degradation effect at 1 μM. In outline: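 T-Rex CHOK1 clone D1 with doxycycline-inducible (1 μg/ml) Tau P301L treated 48 h with compound at 1 μM, doxycycline removed for the final 24 h. Sarkosyl-insoluble tau quantified by WES capillary electrophoresis with Tau1 antibody, expressed relative to DMSO doxycycline control and binned as ≤50% or >50% remaining.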

Setting [1] is: remaining tau protein in sarkosyl insoluble pellet, CHOK1 Tau P301L cells treated 48 hours with test compound at 1 μM, doxycycline removed for the last 24 hours.
[2] abbreviates: CHOK1 Tau P301L cells, remaining tau in sarkosyl insoluble pellet, 48 hours with test compound at 1 μM, doxycycline removed for last 24 hours.

T1 sequence (P10636 1-441 isoform P10636-8 P301L): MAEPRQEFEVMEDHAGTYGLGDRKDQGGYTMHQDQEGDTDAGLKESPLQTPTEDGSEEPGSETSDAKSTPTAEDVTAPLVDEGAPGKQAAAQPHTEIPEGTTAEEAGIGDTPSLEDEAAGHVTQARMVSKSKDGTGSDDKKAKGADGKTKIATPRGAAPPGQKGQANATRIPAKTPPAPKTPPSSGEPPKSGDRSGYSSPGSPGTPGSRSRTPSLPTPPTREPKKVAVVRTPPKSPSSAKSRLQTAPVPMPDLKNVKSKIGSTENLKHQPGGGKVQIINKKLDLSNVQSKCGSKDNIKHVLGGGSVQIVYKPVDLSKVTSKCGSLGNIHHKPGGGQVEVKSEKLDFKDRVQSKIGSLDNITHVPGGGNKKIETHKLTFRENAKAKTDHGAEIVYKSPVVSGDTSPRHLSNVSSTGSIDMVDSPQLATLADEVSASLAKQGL

As for `O=C1CCC(N2C(=O)c3ccc(N4CCN(CCC5CCN(c6c(F)cc(-c7ccc8c9cnccc9n(C(F)F)c8n7)cc6F)CC5)CC4)cc3C2=O)C(=O)N1` (stereo not drawn) [Compound 676, 5-(4-(2-(1-(4-(9-(difluoromethyl)-9H-pyrrolo[2,3-b:4,5-c′]dipyridin-2-yl)-2,6-difluorophenyl)piperidin-4-yl)ethyl)piperazin-1-yl)-2-(2,6-dioxopiperidin-3-yl)isoindoline-1,3-dione], under setting [1], the remaining activity at 1 µM was less than 50%. As for `CC(C)(CC1CCN(c2ncc(-c3ccc4c5cnccc5n(C(F)F)c4c3)cc2F)CC1)N1CCN(c2ccc3c(c2)C(=O)N(C2CCC(=O)NC2=O)C3=O)CC1` (stereo not drawn) [Compound 677, 5-(4-(1-(1-(5-(5-(difluoromethyl)-5H-pyrido[4,3-b]indol-7-yl)-3-fluoropyridin-2-yl)piperidin-4-yl)-2-methylpropan-2-yl)piperazin-1-yl)-2-(2,6-dioxopiperidin-3-yl)isoindoline-1,3-dione], under setting [1], the remaining activity at 1 µM is less than 50%. As to `O=C1CCC(N2C(=O)c3ccc(N4CCN(CCC5CCN(c6ccc(-c7c(F)cc8c9cnccc9n(C(F)F)c8c7F)cn6)CC5)CC4)cc3C2=O)C(=O)N1` (stereo not drawn) [Compound 679, 5-(4-(2-(1-(5-(5-(difluoromethyl)-6,8-difluoro-5H-pyrido[4,3-b]indol-7-yl)pyridin-2-yl)piperidin-4-yl)ethyl)piperazin-1-yl)-2-(2,6-dioxopiperidin-3-yl)isoindoline-1,3-dione], the remaining activity at 1 µM under setting [1] was less than 50%. `CN(C)c1ccn2cc(-c3cnc(N4CCC(CCN5CCN(c6ccc7c(c6)C(=O)N(C6CCC(=O)NC6=O)C7=O)CC5)CC4)c(F)c3)nc2c1` (stereo not drawn) [Compound 680, 5-(4-(2-(1-(5-(7-(dimethylamino)imidazo [1,2-a]pyridin-2-yl)-3-fluoropyridin-2-yl)piperidin-4-yl)ethyl)piperazin-1-yl)-2-(2,6-dioxopiperidin-3-yl)isoindoline-1,3-dione]: under setting [2], the remaining activity at 1 µM is less than 50%. In the case of `O=C1CCC(N2Cc3c(cccc3N3CCN(CCC4CCN(c5ncc(-c6ccc7c8cnccc8n(C(F)F)c7c6)cc5F)CC4)CC3)C2=O)C(=O)N1` (stereo not drawn) [Compound 682, 3-(4-(4-(2-(1-(5-(5-(difluoromethyl)-5H-pyrido[4,3-b]indol-7-yl)-3-fluoropyridin-2-yl)piperidin-4-yl)ethyl)piperazin-1-yl)-1-oxoisoindolin-2-yl)piperidine-2,6-dione], the remaining activity at 1 µM under setting [2] was less than 50%.

With `O=C1CCC(N2C(=O)c3ccc(N4CCC(OC5CCN(C[C@H]6C[C@H](Oc7ncc(-c8ccc9c%10cnccc%10n(C(F)F)c9c8)cc7F)C6)CC5)CC4)cc3C2=O)C(=O)N1` (stereo partly drawn) [Compound N637], the remaining activity at 1 µM under setting [2] is less than 50%.
